Results from ChEMBL document CHEMBL4229567, “Aiming to Miss a Moving Target: Bromo and Extra Terminal Domain (BET) Selectivity in Constrained ATAD2 Inhibitors” (J Med Chem, 2018).

Tests used:
[1] = target: T1, ATPase family AAA domain-containing protein 2 (Homo sapiens, UniProt Q6PL18); experiment: Inhibition of N-terminal FLAG-6His-tagged TEV-fused ATAD2 (981 to 1121 residues) (unknown origin) expressed in Escherichia coli BL21(DE3) after 30 mins in presence of biotinylated triacetylated histone H4 peptide by alexa fluor 488-dye based TR-FRET assay
T1 sequence (Q6PL18 whole entry): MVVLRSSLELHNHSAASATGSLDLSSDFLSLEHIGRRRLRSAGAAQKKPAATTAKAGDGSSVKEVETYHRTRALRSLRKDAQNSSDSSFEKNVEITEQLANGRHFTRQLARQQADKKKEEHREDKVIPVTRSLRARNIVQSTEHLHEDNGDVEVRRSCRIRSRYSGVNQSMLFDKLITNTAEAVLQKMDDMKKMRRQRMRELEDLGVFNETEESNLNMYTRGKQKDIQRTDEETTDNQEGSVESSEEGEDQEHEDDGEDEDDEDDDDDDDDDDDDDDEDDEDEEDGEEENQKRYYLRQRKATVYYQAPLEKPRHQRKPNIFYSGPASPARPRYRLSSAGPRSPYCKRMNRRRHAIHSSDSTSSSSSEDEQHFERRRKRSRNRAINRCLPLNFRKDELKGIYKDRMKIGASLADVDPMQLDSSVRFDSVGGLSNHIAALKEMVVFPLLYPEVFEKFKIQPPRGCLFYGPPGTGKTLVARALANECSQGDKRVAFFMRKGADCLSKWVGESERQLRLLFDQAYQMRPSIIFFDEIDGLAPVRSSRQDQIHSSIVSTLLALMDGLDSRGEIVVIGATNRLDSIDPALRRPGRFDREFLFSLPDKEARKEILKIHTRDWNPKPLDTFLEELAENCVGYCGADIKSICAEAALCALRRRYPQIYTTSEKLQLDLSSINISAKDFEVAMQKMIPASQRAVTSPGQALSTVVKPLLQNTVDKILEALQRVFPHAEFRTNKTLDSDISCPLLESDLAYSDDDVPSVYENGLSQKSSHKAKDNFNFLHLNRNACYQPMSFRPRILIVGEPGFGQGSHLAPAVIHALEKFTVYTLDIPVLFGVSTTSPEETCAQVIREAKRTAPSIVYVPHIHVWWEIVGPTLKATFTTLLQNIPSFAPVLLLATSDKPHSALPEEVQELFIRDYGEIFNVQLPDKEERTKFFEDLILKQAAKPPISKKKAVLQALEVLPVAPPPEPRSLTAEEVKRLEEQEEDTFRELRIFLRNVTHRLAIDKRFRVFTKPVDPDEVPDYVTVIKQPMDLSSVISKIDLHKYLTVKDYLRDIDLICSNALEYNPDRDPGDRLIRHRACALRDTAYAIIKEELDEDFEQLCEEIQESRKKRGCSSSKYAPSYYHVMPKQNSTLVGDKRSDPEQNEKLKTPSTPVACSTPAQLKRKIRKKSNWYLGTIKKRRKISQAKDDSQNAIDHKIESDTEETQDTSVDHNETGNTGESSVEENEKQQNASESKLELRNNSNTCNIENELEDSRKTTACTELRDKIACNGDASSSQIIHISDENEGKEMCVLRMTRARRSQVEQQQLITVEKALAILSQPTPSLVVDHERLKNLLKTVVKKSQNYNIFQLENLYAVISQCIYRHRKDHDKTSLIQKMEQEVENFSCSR

[2] = target: Bromodomain-containing protein 4 (Homo sapiens, UniProt O60885); experiment: Inhibition of 6His-tagged Thr-BRD4 (BD1) (1 to 477 residues) (unknown origin) expressed in Escherichia coli BL21(DE3) after 30 mins in presence of biotinylated triacetylated histone H4 peptide by alexa fluor 647 dyse based TR-FRET assay

SMILES	IC50 [1] [µM]	IC50 [2] [µM]
CO[C@H]1CNC[C@@H](OCC2CCS(=O)(=O)CC2)[C@@H]1Nc1ncc(-c2cncc(C)c2)c2cc(C)c(=O)[nH]c12	0.126	158
Cc1cncc(-c2cnc(N[C@@H]3C[C@H]4CC[C@H](N4)[C@H]3CCC3CCS(=O)(=O)CC3)c3[nH]c(=O)c(C)cc23)c1	0.251	> 50.1
CO[C@H]1CNC[C@@H](OC)[C@@H]1Nc1nccc2cc(C)c(=O)[nH]c12	25.1	25.1
CO[C@H]1CNC[C@@H](OCC2CCOCC2)[C@@H]1Nc1ncc(-c2cncc(C)c2)c2cc(C)c(=O)[nH]c12	0.2	31.6
Cc1cncc(-c2cnc(N[C@@H]3CCNC[C@H]3OCC3CCOCC3)c3[nH]c(=O)c(C)cc23)c1	–	10

Compounds with a lower IC50 [2], results first:

IC50 [1] [µM]	IC50 [2] [µM]	SMILES
0.0398	6.31	Cc1cncc(-c2ccc(N[C@@H]3CCNC[C@H]3OCC3CCC(F)(F)CC3)c3[nH]c(=O)c(C)cc23)c1
0.1	5.01	Cc1cncc(-c2cnc(N[C@@H]3C[C@H]4CC[C@H](N4)[C@H]3CCC3CCC(F)(F)CC3)c3[nH]c(=O)c(C)cc23)c1
–	3.98	Cc1cc2ccnc(N[C@@H]3CCNC[C@H]3OCC3CCCCC3)c2[nH]c1=O
0.251	5.01	Cc1cncc(-c2ccc(N[C@@H]3C[C@H]4CC[C@H](N4)[C@H]3CCC3CCS(=O)(=O)CC3)c3[nH]c(=O)c(C)cc23)c1
0.251	7.94	Cc1cncc(-c2cnc(N[C@@H]3C[C@H]4CC[C@H](N4)[C@H]3CCC3CCOCC3)c3[nH]c(=O)c(C)cc23)c1
–	5.01	CO[C@@H]1CNCC[C@H]1Nc1nccc2cc(C)c(=O)[nH]c12
